We go through two molecules from US20240379187A1, “SYSTEMS AND METHODS FOR OMICS-BASED ANALYSIS OF GENE EXPRESSION” (priority 2023, published 2024).

Assay [1] has as its system C. difficile. As to conditions: cited from earlier work.
Assay [2] deals with C. difficile. Description: CAT-GxD re-analysis of public C. difficile gene expression datasets (heatmap, PCA, STRING network, KEGG PTS pathway overlay) after DCA or succinate exposure. As to conditions: for most of the Glc family phosphorylation and L-ascorbate phosphorylation (KEGG PTS pathway): unchanged in Δsig54. Format: cell-based, Clostridioides difficile. The text has this: Typically, specific gene expression datasets and protein quantitation datasets for the selected target organism are collected and made available. In an exemplary form, C. difficile-specific gene expression datasets and protein quantitation datasets were collected from GEO database and ProteomeXchange databases, respectively. An SQL database was generated using RSQlite (version 2.3.4) (25) to incorporate the 56 nonredundant GEO transcriptomics datasets and 8 quantitative proteomic datasets. GEO subseries datasets already available in their respective superseries dataset were excluded. Quantitative total proteomic datasets were included; those focused on post-translational modification studies were excluded. To integrate and normalize the datasets, gene IDs were matched to the Ensembl stable IDs of the widely accepted C. difficile 630 reference strain using BLASTp, using protein identity and gene position comparisons and given the NCBI format CD630. Pre-computed log2 ratios without any gene duplication were imported as is. Studies with replicate log2 ratios assigned for a gene ID (common in microarray experiments due to replicate spots) were solved by computing the median log2 ratio. Two-channel microarray experiments with duplicate ratios assigned to a gene were solved by computing the average of the complementary ratios then log2 transformed. Reads Per Kilobase Million (RPKM) of raw RNASeq data were computed. For datasets without any computed ratios, log2 ratios were calculated for each treatment vs. control, and median normalization was performed. Gene classifications (described in Input and Data Filtering) were compiled to provide a comprehensive and robust search.
To glean additional insight into the interactions between the remaining 26 genes, the analysis was transitioned to the STRING database by clicking on the STRING icon at the top left of the page (expression information, however, will not ‘carry over’). […] The least number of nodes with the higher network association scores were selected to bridge the clusters. […] Next, the 5 bridging nodes and rpoN/sigL/sig54 were added to the 26 gene set and re-entered in the CAT-GXD's ‘Search’ bar. […] In order to link the separate networks, the 26 genes were sent to the STRING database by clicking on the STRING icon.
In the pathway tab in CAT-GxD, gene expression data for specific conditions can be overlaid on selected KEGG pathways.

The subject of assay [3] is C. difficile. As to conditions: cited from earlier work. This is another data set of the same source.
Setting [4] is: C. difficile exposed to 240 μM DCA for 48 hours.
[5] abbreviates: DCA exposure, compared with succinate exposure.
The mark [6] stands for this setting: C. difficile exposed to 80 mM succinate for 24 hours.
Setting [7] is: C. difficile treated with 80 mM succinate for 24 hours.

For `C[C@H](CCC(=O)O)[C@H]1CC[C@H]2[C@@H]3CC[C@@H]4C[C@H](O)CC[C@]4(C)[C@H]3C[C@H](O)[C@]12C` [DCA], the “biofilm formation in C. difficile” value with C. difficile [1] was “induce biofilm formation”. In the assay on C. difficile [2] (setting [4]), the SigL/Sig54/RpoN expression entry was “downregulated”, the “expression of central bridging node pheA” value is on record as “upregulated”, the “genes of cluster [2] downregulated” value was 3 of 10 and the “number of the 27 Δsig54 downregulated genes also downregulated” value is given as 19 of the 27. For the same molecule, the bridging nodes downregulated with C. difficile [2] (C. difficile exposed to 240 μM DCA for 48 hours, bridging nodes ptsH, pheA, pfo, CD3092, CD3640) is recorded as 4 of the 5. For the same molecule, in the assay with C. difficile [2] (DCA exposure (240 μM, 48 hours)), the “expression of cluster [2] bridging node ptsH” value is given as “downregulated”. In the assay with C. difficile [2] (setting [5]), the “mannitol (mtlF) phosphorylation (KEGG PTS pathway)” value is reported as “increased” and the “sorbitol phosphorylation (KEGG PTS pathway)” value was “decreased”. Also, the “most of the Glc family phosphorylation and L-ascorbate phosphorylation (KEGG PTS pathway)” value in the assay on C. difficile [2] (DCA ratio (240 μM, 48 hrs)) is “downregulated”.

Take `O=C(O)CCC(=O)O` [succinate]: the “mtlF expression in succinate induced biofilms” value in the assay on C. difficile [3] was “downregulation”. For the same molecule, the “biofilm formation in C. difficile” value in the assay with C. difficile [1] is given as “induce biofilm formation”. Besides, in the assay with C. difficile [1] (succinate versus DCA), the “biofilm thickness compared with DCA-induced biofilm” value is given as “significantly thicker biofilm”. In addition, in the assay on C. difficile [2] (setting [6]), the “expression of bridging node pfo of clusters [1] and [3]” value is reported as “upregulated”; the “expression of central bridging node pheA” value was “upregulated”; the “expression of cluster [2] bridging node ptsH” value is “downregulated”. For the same molecule, in the assay with C. difficile [2] (setting [7]), the SigL expression result is “upregulation”; the “genes (clusters [1] and [3]) displaying contrasting expression patterns relative to Δsig54” value is 13 of 27; the “genes (of the 10 of cluster [2]) with similar downregulation patterns as with Sig54 loss” value was 7 of the 10. Besides, the “cellobiose, fructoselysine and sorbitol phosphorylation (KEGG PTS pathway)” value with C. difficile [2] (succinate exposure, compared with DCA exposure) was “increased”. Besides, the “most of the Glc family phosphorylation and L-ascorbate phosphorylation (KEGG PTS pathway)” value in the assay with C. difficile [2] (succinate ratio (24 hrs biofilm)) was “downregulated”.
